US7879853B2, “4,6-disubstituted pyrimidines and their use as protein kinase inhibitors” (Bayer Schering Pharma AG, priority 2004, dated 2011)

Assays:
[1] = molecular target: T1, Akt1 (full-length Akt1, active) (Homo sapiens, UniProt P31749); assay: Biochemical Akt1 (active) assay (full-length Akt1), flashplate, Crosstide; settings: Crosstide substrate, 100 nM ATP, 60 minutes at 30° C.; read-out: Akt1 inhibition (full-length Akt1, active): IC50
T1 construct: recombinant full-length human Akt1, containing N-terminal His6 tag; His6 (N); GST (alternative statement of the assay paragraph) (N); purchased Upstate, UK #14-276; host or cells: baculovirus infected Sf21 insect cells
T1 sequence (P31749 whole entry): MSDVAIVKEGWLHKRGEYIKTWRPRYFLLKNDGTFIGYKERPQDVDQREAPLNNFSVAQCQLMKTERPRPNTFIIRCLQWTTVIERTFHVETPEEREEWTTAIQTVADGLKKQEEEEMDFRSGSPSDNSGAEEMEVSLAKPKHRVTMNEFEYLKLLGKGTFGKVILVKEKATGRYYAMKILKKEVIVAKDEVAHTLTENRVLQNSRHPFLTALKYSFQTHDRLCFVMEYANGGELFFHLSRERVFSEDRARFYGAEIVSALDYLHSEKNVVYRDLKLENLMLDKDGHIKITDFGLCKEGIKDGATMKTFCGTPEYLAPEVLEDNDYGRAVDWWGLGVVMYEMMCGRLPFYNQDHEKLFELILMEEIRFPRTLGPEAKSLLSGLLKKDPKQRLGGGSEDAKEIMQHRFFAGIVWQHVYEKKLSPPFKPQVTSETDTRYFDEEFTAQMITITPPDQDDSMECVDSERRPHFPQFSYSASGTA
Text: For the biochemical Akt1 assay recombinant full-length human Akt1, containing N-terminal His6 tag was cloned and expressed in baculovirus infected Sf21 insect cells. Akt1 is activated with GST-MAPKAP-K2 and PDK1, and repurified on Ni2+/NTA-agrose and glutathioneagarose (Upstate, UK; #14-276).
In order to study the inhibition of Akt1 (full-length version) according to the invention, a flashplate-based assay has been developed.
The full-length Akt1 assay is a biochemical assay using Akt1 N-terminally fused to GST and co-expressed with PDK1 in insect cells. The Akt1 assay is run in 96 well plates by incubating 500 ng/well GST-Akt1, 1 μM Crosstide (N-terminally biotinylated synthetic peptide (KGSGSGRPRTSSFAEG) Upstate, #12-385) as substrate, 10 μl of test compound (test compounds were dissolved as 10 mM solutions in dimethylsulfoxide (DMSO) and subsequently diluted) and 100 nM ATP (including ^33P-ATP) in 100 μl of reaction buffer (50 mM HEPES, pH7.5; 3 mM MgCl2; 3 mM MnCl2; 3 μM Na-Orthovanadat; 1 mM DTT; 1 μg/ml PEG8000) for 60 minutes at 30° C. in 96 well microtiter plates. The reactions are terminated by adding 100 μl stopping buffer (5M NaCl, 35 mM EDTA pH 8,0) for 5 minutes. 190 μl of the reaction mixture are transferred into streptavidin-coated Flashplates (Perkin Elmer, #SMP-103) and incubated for further 30 minutes at room temperature. The plates are washed 3 times by using washing buffer (0.9% NaCl). Relying on the incorporation of ^33P into the peptide substrate crosstide, the detection is based on the specific binding of the biotinylated peptide to the streptavidin-coated surface of scintillator-coated flash plates (NEN, USA; #SMP-103). This phosphorylation is measured by counting the plate for 60 sec. using a plate reader (Wallac Microbeta; Perkin Elmer, USA). The analysis of the data is performed using a biostatistical program (GraphPad Prism, USA).

[2] = molecular target: T2, Akt1 (full-length Akt1, inactive) (Homo sapiens, UniProt P31749); assay: Biochemical Akt1 (inactive) assay (full-length Akt1), IMAP, PDK1-dependent activation; settings: activation by PDK1 with PIP3 vesicles, 50 μM ATP, 60 min. at room temperature; read-out: Inhibition of Akt1 activation (full-length Akt1, inactive): IC50
T2 construct: recombinant full-length human Akt1 a containing N-terminal His6 tag; His6 (N); purchased Upstate, UK #14-279; host or cells: baculovirus infected Sf21 insect cells
T2 sequence (P31749 whole entry): as above
Experimental: The enzyme is purified using Ni2+/NTA-agarose (Upstate, UK; #14-279).
The enzyme is purified using Ni2+/NTA-agarose.
PDK1-dependent activation and subsequent enzymatic activity of Akt1: Activity of purified human Akt1 is routinely measured in an assay in which the enzyme is first activated by PDK1 in the presence of phosphatidylinositol-3,4,5-triphosphate (PIP3). Once activated, Akt1-dependent phosphorylation of a fluorescence labelled peptide substrate is measured by fluorescence polarisation using the IMAP technology (Molecular Devices).
The phospholipids are prepared as follows: 5 mg DOPC/DOPS are solved in 200 μl 10 mM Tris (pH 7.4) and 300 μg PIP3 are resuspended in 950 μl 10 mM Tris (pH 7.4) by pipetting. 950 μl solved PIP3 are mixed with 50 μl solved DOPC/DOPS and incubated for 2 h at a temperature below 20° C. Then the mixture is subjected to sonification for 30 min. at max. power until a translucent phopholipid vesicle preparation is obtained. Aliquots of the vesicle suspension are frozen at −80° C. until needed, likewise the solved DOPC/DOPS.
Assays are performed in 384-well plates. Incubations are carried out for 60 min. at room temperature. The reaction buffer mixture contains in a final volume of 25 μl: 10 mM Tris pH 7.4, 10 mM MgCl2. 1 mM DTT, and 0,1 mg/ml BSA. In contrast the activation buffer contains: 50 ng/well Akt1, 20 ng/well PDK1, 1.25 μM peptide substrat, 50 μM ATP, and phospholipid vesicles (1:20). Test compounds are added from stock solutions in DMSO before activation of Akt1 by PDK1. After the incubation the beads (IMAP binding reagent; Molecular Devices; 1:167) are added and the fluorescence polarization is measured (excitation 485 nm, emission 530 nm). The analysis of the data is performed using a biostatistical program.

MCF7 cells = assay: Cellular proliferation/cytotoxicity assay (Alamar Blue), MCF7; format: cell-based; settings: Homo sapiens; MCF7, 48 hours, Alamar Blue (Resazurin); read-out: Anti-proliferative/cytotoxic activity: IC50 MCF7
Experimental: (§1) The anti-proliferative activity of the compounds as described herein, is evaluated using MCF7 and MDA-MB-468 (ATCC HTB-22 and HTB-132) cell lines and the Alamar Blue (Resazurin) cell viability assay (O'Brien et al. Eur J Biochem 267, 5421-5426, 2000). Resazurin is reduced to the fluorescent rescrufin by cellular dehydrogenase activity, correlating with viable, proliferating cells. Test compounds are dissolved as 10 mM solutions in DMSO and subsequently diluted. MCF7 or […] cells were seeded into 96 well flat bottom plates at a density of 10000 cells/well (MCF7) or 5000 cells/well (MDA-MB-468) in a volume of 200 μl/well. 24 hours after seeding, 1 μl each of the compound dilutions are added into each well of the 96 well plates. Each compound dilution is tested as at least as duplicates. Wells containing untreated control cells were filled with 200 μl DMEM containing 0.5% v:v DMSO. The cells are then incubated with the substances for 48 hours at 37° C. in a humidified atmosphere containing 5% carbon dioxide. To determine cell viability, 20 μl of a Resazurin solution (Sigma; 90 mg/l) are added. After 4 hours incubation at 37° C. the fluorescence is measured at an extinction of 544 nm and an emission of 590 nm (Wallac Victor2; Perkin Elmer, USA). For the calculation of the cell viability the emission value from untreated cells is set as 100% viability and the emission rates of treated cells are set in relation to the values of untreated cells. Viabilities are expressed as % values. The corresponding IC50 values of the compounds for cytotoxic activity are determined from the concentration-effect curves by means of non-linear regression. The analysis of the data is performed using a biostatistical program (GraphPad Prism, USA).

MDA-MB-468 cells = assay: Cellular proliferation/cytotoxicity assay (Alamar Blue), MDA-MB-468; format: cell-based; settings: Homo sapiens; MDA-MB-468, 48 hours, Alamar Blue (Resazurin); read-out: Anti-proliferative/cytotoxic activity: IC50 MDA468
Experimental: as §1

- IC50 [1]: ≤ 1.75 µM
- IC50 [2]: ≤ 4.4 µM
Structure (SMILES): CC(C)(N)c1ccc(C(=O)Nc2ccc(Nc3cc(-c4cccc5c4oc4ccccc45)ncn3)cc2)cc1 [Compound 69, 4-(1-Amino-1-methyl-ethyl)-N-[4-(6-dibenzofuran-4-yl-pyrimidin-4-ylamino)-phenyl]-benzamide trifluoracetate]
- IC50 (MCF7 cells): ≤ 16.6 µM
- IC50 (MDA-MB-468 cells): ≤ 6.05 µM
